{"source": "patent US20260091082A1", "about": "“CYCLIC PEPTIDE DERIVATIVE COMPOSITION FOR TREATING OR PREVENTING EYE DISEASE” (DKS Co. Ltd., priority 2022, published 2026)", "key": {"[1]": {"test": "General condition observation (clinical signs) in anterior chamber aqueous humor pressure load rat model", "type": "in vivo, Rat; Slc: SD", "set-up": "key: —: No anormal sign", "conditions": "10 mg/mL intravenous, once about 30 minutes before ischemic load, animals 401-410 (test group 4), per animal", "protocol": "(§1) • Species and strains: Rat; Slc: SD • Number of animals on arrival and sex: 50 males • Age in weeks at arrival: 6 weeks old • Body weight range at arrival: 147.2 to 170.0 g • Source: Japan SLC, Inc.\nThe body weight of the animals was measured at a frequency of once a week or more, and the general condition observation was performed every day.\n(§2) • Administration route: Eyedrop administration, intravenous administration • Administration method (eyedrop): Eyedrop administration was performed on a treated eye (right eye) of a rat using a micropipette 4 times a day (at intervals of 1.5 hours or more). • Administration method (intravenous): The amount of administration solution, calculated from the body weight on the day of administration, was administered from the tail vein using a syringe and an injection needle about 30 minutes before ischemic load. • Time of administration: Administration was performed according to the following schedule."}, "[2]": {"test_system": "anterior chamber aqueous humor pressure load rat model", "test": "Retinal thickness (IPL, INL, ONL) in retinal damage model induced by anterior chamber aqueous humor pressure load", "type": "in vivo, Rat; Slc: SD", "conditions": "10 mg/mL intravenous, right eye", "protocol": "• Name: Compound 9 • Source: Synthesized in the above Examples • Used amount: 0.4 mL (50 mg/mL solution) • Storage conditions: Freezing, light shielding\nMethod for preparing test substance (1 mg/mL): A high concentration solution prepared at 50 mg/mL was diluted 50 times with a medium to prepare a 1 mg/mL administration solution.\n• Name: MK-801 • Distributor: SIGMA-ALDRICH • Use amount: 0.0501 g • Storage condition: refrigerated (2° C. to 8° C.)\nMethod for preparing positive control substance (10 mg/mL): 0.0501 g was weighed out and made up to a total volume of 5 mL with a control substance (physiological saline).\nas §1\nGrouping was performed two days before the first creation of the retinal damage model induced by an anterior chamber aqueous humor pressure load. Using the daily body weight as an index, stratified random allocation was performed using SAS (Ver. 9.3, SAS Institute Japan Ltd.) and EXSUS (Ver. 8.0, CAC Croit Corporation) so that an average value of the body weights of each group was approximately uniform.\nas §2\n1. 10 mg/kg xylazine hydrochloride was intramuscularly administered on the model creation day (day 0). A rat was placed in an anesthesia box and subjected to general anesthesia with isoflurane (5%, oxygen:nitrous oxide=1:3). When anesthesia was effective, the rat was taken out of the anesthesia box, an inhalation anesthetic mask was worn, and anesthesia was maintained with isoflurane (1% to 5%, oxygen nitrous oxide=1:3).\n2. The body temperature was maintained at 37° C. with a warming mat, and a mydrin P ophthalmic solution was instilled in the right eye (treated eye) of the rat to dilate the pupil, then the cravit ophthalmic solution 1.5% (Santen Pharmaceutical Co., Ltd.) was instilled.\n3. A bottle of an IV bag containing physiological saline was previously suspended so that a water surface was 155 cm (100 mmHg or more) higher than the eye of the rat. The IV bag was connected to a pediatric infusion set (Terumo Corporation), a 27 G injection needle thereof was inserted into and fixed to the anterior chamber while slightly dripping the liquid from a needle tip. The model was created in the light phase (6:00 to 18:00) in consideration of the diurnal variation of the intraocular pressure.\n4. After the needle was inserted into the anterior chamber, pressure (100 mmHg or more) was loaded and maintained in the anterior chamber by associating the reflux system.\n5. After an ischemic load for 45 minutes, the injection needle and the like were removed, the inhalation anesthetic mask was removed, and the rat was sufficiently woken up under a warming mat, and then returned to the cage.\n6. For 2 days after surgery, 10 mg/kg xylazine hydrochloride was intramuscularly administered as an analgesic for the purpose of alleviating the pain after the treatment.\n1. Fourteen days after model creation, general anesthesia was performed with isoflurane (5%, oxygen:nitrous oxide=1:3), euthanasia was then performed by exsanguination, a suture was placed as a marker at the 12 o'clock position of the ocular conjunctiva, and eyeball enucleation was performed.\n2. […]"}, "[3]": {"conditions": "300 μm from optic disk, individual measurements per animal"}, "[4]": {"conditions": "300 μm from optic disk, mean per animal"}}, "note": "Values joined by “and” are separate entries in the source; they are usually repeats but may differ in a detail not shown here. Equal entries are not always repeated.", "data": [{"compound": "C[C@]12N[C@H](Cc3ccccc31)c1ccccc12", "note": "[MK-801, reference compound]", "values": [{"measurement": "Clinical signs", "setting": "[1]; Day 0", "value": "—"}, {"measurement": "Clinical signs", "setting": "[1]; Day 1", "value": "—"}, {"measurement": "Clinical signs", "setting": "[1]; Day 2", "value": "—"}, {"measurement": "Clinical signs", "setting": "[1]; Day 3", "value": "—"}, {"measurement": "Clinical signs", "setting": "[1]; Day 4", "value": "—"}, {"measurement": "Clinical signs", "setting": "[1]; Day 5", "value": "—"}, {"measurement": "Clinical signs", "setting": "[1]; Day 6", "value": "—"}, {"measurement": "Clinical signs", "setting": "[1]; Day 7", "value": "—"}, {"measurement": "Clinical signs", "setting": "[1]; Day 8", "value": "—"}, {"measurement": "Clinical signs", "setting": "[1]; Day 9", "value": "—"}, {"measurement": "Clinical signs", "setting": "[1]; Day 10", "value": "—"}, {"measurement": "Clinical signs", "setting": "[1]; Day 11", "value": "—"}, {"measurement": "Clinical signs", "setting": "[1]; Day 12", "value": "—"}, {"measurement": "Clinical signs", "setting": "[1]; Day 13", "value": "—"}, {"measurement": "Clinical signs", "setting": "[1]; Day 14 (day of necropsy)", "value": "—"}, {"measurement": "Clinical signs", "setting": "[1]; Day −1", "value": "—"}, {"measurement": "Clinical signs", "setting": "[1]; Day −2", "value": "—"}, {"measurement": "Thickness of INL (μm), Distance from Optic Disk 300 μm", "setting": "[2]; [3]", "value": "43.354 μm and 38.856 μm and 38.516 μm and 27.422 μm (2×) and 28.629 μm and 30.645 μm and 26.920 μm and 25.120 μm and 24.650 μm and 35.504 μm and 33.881 μm and 32.856 μm and 27.965 μm and 24.925 μm and 25.788 μm and 20.485 μm and 25.262 μm and 25.607 μm and 23.821 μm and 27.016 μm and 25.835 μm and 27.670 μm and 26.395 μm and 24.758 μm and 25.159 μm and 24.873 μm and 35.703 μm and 32.278 μm and 31.627 μm"}, {"measurement": "Thickness of IPL (μm), Distance from Optic Disk 300 μm", "setting": "[2]; [3]", "value": "47.608 μm and 50.434 μm and 48.521 μm and 38.326 μm and 39.132 μm and 40.728 μm and 36.614 μm and 38.136 μm and 36.780 μm and 37.923 μm and 37.097 μm and 36.446 μm and 38.879 μm and 37.066 μm and 37.189 μm and 34.034 μm and 34.084 μm and 33.182 μm and 34.736 μm and 31.462 μm and 32.671 μm and 35.348 μm and 37.744 μm and 37.108 μm and 43.612 μm and 37.515 μm and 38.865 μm and 37.237 μm and 35.429 μm and 37.489 μm"}, {"measurement": "Thickness of INL (μm), Distance from Optic Disk 300 μm, Mean", "setting": "[2]; [4]", "value": "40.242 μm and 28.899 μm and 25.563 μm and 34.080 μm and 26.226 μm and 23.785 μm and 25.557 μm and 27.162 μm and 24.930 μm and 33.203 μm"}, {"measurement": "Thickness of IPL (μm), Distance from Optic Disk 300 μm, Mean", "setting": "[2]; [4]", "value": "48.854 μm and 39.395 μm and 37.177 μm and 37.155 μm and 37.711 μm and 33.767 μm and 32.956 μm and 36.733 μm and 39.997 μm and 36.718 μm"}, {"measurement": "Thickness of INL (μm), Distance from Optic Disk 600 μm", "setting": "[2]; 600 μm from optic disk, individual measurements per animal", "value": "38.743 μm and 36.612 μm and 29.504 μm and 25.885 μm and 27.808 μm and 31.247 μm and 41.632 μm and 47.024 μm and 32.661 μm and 30.741 μm and 27.960 μm and 28.852 μm and 19.795 μm and 16.209 μm and 32.381 μm and 32.162 μm and 24.755 μm and 25.923 μm (2×) and 32.268 μm and 39.011 μm and 36.780 μm and 28.629 μm and 32.351 μm and 44.795 μm and 30.775 μm and 27.268 μm and 20.418 μm and 31.364 μm and 35.532 μm"}]}]}
